Test results as given in article PMC9785280, “Synthesis, Antiproliferative Evaluation and QSAR Analysis of Novel Halogen- and Amidino-Substituted Benzothiazoles and Benzimidazoles” (International Journal of Molecular Sciences, 2022).

Tests used:
[1] = system: HuT78 (T-cell lymphoma) cells; test: MTT antiproliferative assay, HuT78; format: cell-based, human; details: for IC50: Homo sapiens, HuT78, 72 h, 72 h, MTT, mean ± SD of three independent experiments; for SI (BJ) HuT78: SI = IC50 BJ / IC50 HuT78; for SI (MDCK) HuT78: SI = IC50 MDCK1 / IC50 HuT78
Description: (§1) The growth inhibition activity was assessed according to the slightly modified procedure performed at the National Cancer Institute, Developmental Therapeutics Program.
(§2) Examined compounds were dissolved in DMSO (1 × 10^−2 M). The experiments were carried out on seven human tumor cell lines and two normal cell lines. The following cell lines were used: HeLa (human cervical adenocarcinoma; purchased from ATCC), CaCo-2 (human colorectal adenocarcinoma), HuT78 (T-cell lymphoma), THP-1 (acute monocytic leukemia), SW620 (colorectal adenocarcinoma, metastatic), MDA-MB-231 (human breast adenocarcinoma), HL60 (promyelocytic leukemia cell line), foreskin fibroblast cells (BJ) and MDCK1 (Madine–Darby canine kidney fibroblast like cells). MDCK1 cells were used between 24 and 26 passages.
(§3) Adherent cells were cultured in the Dulbecco’s modified Eagle medium—DMEM (Gibco, EU) supplemented with 10 % heat-inactivated fetal bovine serum (FBS, Gibco, EU), 2 mM glutamine, and 100 U/0.1 mg penicillin/streptomycin. Cells on suspension were cultured in RPMI 1640 (Gibco, EU) medium supplemented with 10 % FBS (Gibco, EU), 2 mM glutamine, 1 mM sodium pyruvate, 10 mM HEPES. Cells were grown in humidified atmosphere under the conditions of 37 °C/5% of CO2 gas in the CO2 incubator (IGO 150 CELLlife^TM, JOUAN, Thermo Fisher Scientific, Waltham, MA, USA). A erythrosin B (Sigma-Aldrich, St. Louis, MO, USA) dye exclusion method was used to assess cell viability before plating.
(§4) Adherent cells (HeLa, CaCo-2, MCF-7 and MDCK-1) were plated in 96-well flat bottom plates (Greiner, Frickenhausen, Austria) at a concentration of 2 × 10^4 cells/mL. Suspension cells (THP-1 and HuT78) were plated in 96-well microtiter plates (Sarstead, Newton, USA) at a concentration of 1 × 10^5 cells/mL. Twenty-four hours later, cells were treated with test agents in […] 10-fold dilutions ([…] to 10^−4 M) and incubated for further 72 h. Working dilutions were freshly prepared on the day of testing. The solvent was also tested for eventual inhibitory activity by adjusting its concentration to be the same as in working concentrations. After 72 h of incubation, the cell growth rate was evaluated by performing the MTT assay, which detects dehydrogenase activity in viable cells. For this purpose, upon completion of the incubation period, growth medium was discarded and 50 μL of MTT was added to each well at a concentration of 5 mg/mL. After four hours of incubation at 37 °C, water insoluble MTT-formazan crystals were dissolved in 150 μL of dimethyl-sulfoxide (DMSO) for adherent cells, and in 10 % SDS with 0.01 M/L HCl for cells grown in suspension. The absorbance (OD, optical density) was measured on a microplate reader (iMark, BIO RAD, Hercules, CA, USA) at 595 nm.
(§5) Percent of life cells was calculated as follows: % = OD (sample)–OD (background)/OD (control)–OD (background) × 100.
(§6) Optical density (OD) of background for adherent cells is the OD of MTT solution and DMSO; OD (background) for suspension cells is OD of the culture medium with MTT and 10% SDS with 0.01 M/L HCl; OD (control) is the OD of the cells growth without tested compounds.
(§7) Calculation of GI50 value curves and QC analysis is performed by using the Excel tools and GraphPadPrism software (La Jolla, CA), v. 5.03. Briefly, individual concentration effect curves are generated by plotting the logarithm of the concentration of tested compounds(X) vs. corresponding percent inhibition values (Y) using least squares fit. The best fit GI50 values are calculated using Log (inhibitor) versus normalized response—Variable slope equation, where Y Ľ 100/(1 ţ 10 ((LogIC50 _ X) * HillSlope)). QC criteria parameters (Z0, S:B, R2, HillSlope) were checked for every GI50 curve.

[2] = system: HeLa (cervical adenocarcinoma) cells; test: MTT antiproliferative assay, HeLa; format: cell-based; details: Homo sapiens, 72 h, mean ± SD of three independent experiments
Description: as §1, §2, §3, §4, §5, §6, §7

human fibroblasts (BJ) = test: MTT antiproliferative assay, normal BJ fibroblasts; format: cell-based; details: Homo sapiens, Fibroblast, 72 h, MTT, mean ± SD of three independent experiments; normal cells
Description: as §1, §2, §3, §4, §5, §6, §7

[3] = system: MDCK1 (Madin–Darby canine kidney) cells; test: MTT antiproliferative assay, non-tumor MDCK1 cells; format: cell-based; details: Canis lupus familiaris, MDCK1, 72 h, mean ± SD of three independent experiments, normal cells
Description: as §1, §2, §3, §4, §5, §6, §7

[4] = system: CaCo-2 (colon adenocarcinoma) cells; test: MTT antiproliferative assay, CaCo-2; format: cell-based, human; details: for IC50: Homo sapiens, Caco-2, 72 h, MTT, mean ± SD of three independent experiments
Description: as §1, §2, §3, §4, §5, §6
as §7, with “The best fit GI50 values are calculated using Log (inhibitor) versus normalized response—Variable slope equation, where Y Ľ 100/(1 ţ 10 ((LogIC50 _ X) * HillSlope)).” left out

| SMILES | antiproliferative effect on HuT78 cells (in words) [1] | IC50 [1] | IC50 [2] | IC50 (human fibroblasts (BJ)) | IC50 [3] | IC50 [4] | melting point | SI (BJ) HuT78 [1] | SI (MDCK) HuT78 [1] | SI (MDCK) CaCo-2 ([4]; SI = IC50 MDCK1 / IC50 CaCo-2) |
| --- | --- | --- | --- | --- | --- | --- | --- | --- | --- | --- |
| O=c1[nH]cc(F)c(=O)[nH]1 [5-FU, 5-Fluorouracil, reference compound] | did not exhibit antiproliferative effect | > 100 µM | 8.2 ± 1.9 µM | 74 ± 3.1 µM | 55 ± 8.7 µM | – | – | – | – | – |
| O=C(COc1ccc(-c2nc3ccc(Cl)cc3s2)cc1)c1ccccc1 [15a, 6-Chloro-2-(4-(2-oxo-2-phenylethoxy)phenyl)benzothiazole] | – | > 100 µM | > 100 µM | > 100 µM | > 100 µM | > 100 µM | 192 to 195 °C | – | – | – |
| O=C(COc1ccc(-c2nc3ccc(Cl)cc3s2)cc1F)c1ccccc1 [15b, 6-Chloro-2-(3-fluoro-4-(2-oxo-2-phenylethoxy)phenyl)benzothiazole] | – | > 100 µM | > 100 µM | > 100 µM | > 100 µM | > 100 µM | 192 to 195 °C | – | – | – |
| COc1cc(-c2nc3ccc(Cl)cc3s2)ccc1OCC(=O)c1ccccc1 [15c, 6-Chloro-2-(3-methoxy-4-(2-oxo-2-phenylethoxy)phenyl)benzothiazole] | – | > 100 µM | > 100 µM | > 100 µM | 79.3 ± 14.4 µM | > 100 µM | 163 to 166 °C | – | – | – |
| O=C(COc1ccc(-c2nc3ccc(F)cc3s2)cc1)c1ccccc1 [16a, 6-Fluoro-2-(4-(2-oxo-2-phenylethoxy)phenyl)benzothiazole] | – | > 100 µM | > 100 µM | > 100 µM | 87.3 ± 6.9 µM | > 100 µM | 164 to 167 °C | – | – | – |
| Clc1ccc2nc(-c3ccc(OCc4ccccn4)cc3)sc2c1 [18a] | – | 13.2 ± 1.2 µM | 42.4 ± 7.5 µM | > 100 µM | 17.6 ± 5.7 µM | > 100 µM | – | 3.2 | – | – |
| O=C(COc1ccc(-c2nc3ccc(C4=NCCCN4)cc3s2)cc1)c1ccccc1 [38a] | – | 16.2 ± 5.5 µM | 19.7 ± 3.1 µM | 22.6 ± 4.6 µM | 27.1 ± 3.4 µM | 25.4 ± 3.5 µM | – | 1.39 | 1.67 | – |
| c1cc(-c2nc3ccc(C4=NCCCN4)cc3s2)ccc1OCc1c[nH]nn1 [40a] | – | > 100 µM | > 100 µM | > 100 µM | 59.4 ± 18.8 µM | > 100 µM | – | – | – | – |
| Fc1cc(-c2nc3ccc(C4=NCCCN4)cc3s2)ccc1OCc1c[nH]nn1 [40b] | – | 37.3 ± 12.8 µM | > 100 µM | > 100 µM | > 100 µM | > 100 µM | – | 2.68 | 2.68 | – |
| COc1cc(-c2nc3ccc(C4=NCCCN4)cc3s2)ccc1OCc1c[nH]nn1 [40c] | – | > 100 µM | > 100 µM | > 100 µM | > 100 µM | > 100 µM | – | – | – | – |
| c1ccc(Cn2cc(COc3ccc(-c4nc5ccc(C6=NCCCN6)cc5s4)cc3)nn2)cc1 [41a] | – | 4.1 ± 3.6 µM | 25.8 ± 0.8 µM | 27.3 ± 6 µM | 58.2 ± 17.3 µM | 29.2 ± 4.2 µM | – | 6.65 | 14.19 | 1.99 |
| COc1cc(-c2nc3ccc(C4=NCCCN4)cc3s2)ccc1OCc1cn(Cc2ccccc2)nn1 [41c] | – | > 100 µM | > 100 µM | > 100 µM | > 100 µM | > 100 µM | – | – | – | – |
| Fc1cc(-c2nc3ccc(C4=NCCN4)cc3[nH]2)ccc1OCc1ccccn1 [43b] | – | 43.3 ± 4.4 µM | > 100 µM | > 100 µM | > 100 µM | > 100 µM | – | 2.3 | 2.3 | – |
| COc1cc(-c2nc3ccc(C4=NCCN4)cc3[nH]2)ccc1OCc1ccccn1 [43c] | – | 17.7 ± 6.1 µM | > 100 µM | 30.9 ± 8.7 µM | 63.4 ± 8.9 µM | > 100 µM | – | 1.75 | 3.58 | – |
| c1cc(-c2nc3ccc(C4=NCCN4)cc3[nH]2)ccc1OCc1c[nH]nn1 [44a] | – | 89.2 ± 20.6 µM | > 100 µM | 73.3 ± 3.2 µM | > 100 µM | > 100 µM | – | – | 1.2 | – |
| Fc1cc(-c2nc3ccc(C4=NCCN4)cc3[nH]2)ccc1OCc1c[nH]nn1 [44b] | – | 65.6 ± 17.3 µM | > 100 µM | 45.1 ± 20.9 µM | > 100 µM | > 100 µM | – | – | 1.52 | – |
| COc1cc(-c2nc3ccc(C4=NCCN4)cc3[nH]2)ccc1OCc1c[nH]nn1 [44c] | – | > 100 µM | > 100 µM | > 100 µM | > 100 µM | > 100 µM | – | – | – | – |
| c1cc(-c2nc3ccc(C4=NCCN4)cc3[nH]2)ccc1OCc1cn(CCN2CCOCC2)nn1 [46a] | – | 63 ± 15.1 µM | > 100 µM | > 100 µM | > 100 µM | > 100 µM | – | 1.59 | 1.59 | – |
| O=C(COc1ccc(-c2nc3ccc(C4=NCCN4)cc3[nH]2)cc1)N1CCOCC1 [47a] | – | > 100 µM | > 100 µM | > 100 µM | > 100 µM | > 100 µM | – | – | – | – |
| O=C(COc1ccc(-c2nc3ccc(C4=NCCN4)cc3[nH]2)cc1F)N1CCOCC1 [47b] | – | > 100 µM | > 100 µM | > 100 µM | > 100 µM | > 100 µM | – | – | – | – |
| c1cc(-c2nc3ccc(C4=NCCN4)cc3[nH]2)ccc1OCCN1CCOCC1 [48a] | – | > 100 µM | > 100 µM | > 100 µM | > 100 µM | > 100 µM | – | – | – | – |
| Fc1cc(-c2nc3ccc(C4=NCCN4)cc3[nH]2)ccc1OCCN1CCOCC1 [48b] | – | > 100 µM | > 100 µM | > 100 µM | > 100 µM | > 100 µM | – | – | – | – |
| COc1cc(-c2nc3ccc(C4=NCCN4)cc3[nH]2)ccc1OCCN1CCOCC1 [48c] | – | 69.6 ± 25.9 µM | > 100 µM | > 100 µM | > 100 µM | > 100 µM | – | 1.44 | 1.44 | – |
| CCN(CC)CCOc1ccc(-c2nc3ccc(C4=NCCN4)cc3[nH]2)cc1 [49a] | – | > 100 µM | > 100 µM | 80.4 ± 9.9 µM | > 100 µM | > 100 µM | – | – | – | – |
| CCN(CC)CCOc1ccc(-c2nc3ccc(C4=NCCN4)cc3[nH]2)cc1F [49b] | – | > 100 µM | > 100 µM | 64.8 ± 9.2 µM | 82.9 ± 6.6 µM | > 100 µM | – | – | – | – |
| CCN(CC)CCOc1ccc(-c2nc3ccc(C4=NCCN4)cc3[nH]2)cc1OC [49c] | – | > 100 µM | > 100 µM | > 100 µM | > 100 µM | > 100 µM | – | – | – | – |
